The assay concerns MIA PaCa-2. As to the method: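 MIA PaCa-2 Tet-on shOFD1 pancreatic cancer cells (2000 cells/well, 96-well) were treated with Selleck FDA-approved library compounds at 0, 1, 5, 10, 25 and 50 µM, with extra concentrations added where needed, for 72 h at 37 °C. Knockdown wells also received 100 ng/mL doxycycline; control wells received DMSO without doxycycline. Viability was read by CCK-8 absorbance at 450 nm and normalised to DMSO control wells. IC50 was fitted in GraphPad Prism as a 4-parameter logistic with bottom fixed at 0 and top fixed at 1; at least 3 technical replicate wells per condition.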

Where [1] appears, read: OFD1 knockdown: no (no doxycycline).
Where [2] appears, read: OFD1 knockdown: yes (Tet-on shOFD1, 100 ng/mL doxycycline).

Structures are written as SMILES.

Turning to `CC1(C)CCC(c2ccc(Cl)cc2)=C(CN2CCN(c3ccc(C(=O)NS(=O)(=O)c4ccc(N[C@H](CCN5CCOCC5)CSc5ccccc5)c(S(=O)(=O)C(F)(F)F)c4)cc3)CC2)C1` [S1001], the IC50 cell viability came out at 18.7 µM under setting [1] and 19 µM under setting [2].
The matching figures for `Cc1ccc(F)c(NC(=O)Nc2ccc(-c3cccc4[nH]nc(N)c34)cc2)c1` [S1003]: 6.31 µM and 6.22 µM.
The matching figures for `C[C@]1(c2nc3c(C(N)=O)cccc3[nH]2)CCCN1` [S1004]: 77 µM and 44.1 µM.
The matching figures for `CNC(=O)c1ccccc1Sc1ccc2c(/C=C/c3ccccn3)n[nH]c2c1` [S1005]: 38.7 µM and 43.9 µM.
On to `CN1CCN(CCOc2cc(OC3CCOCC3)c3c(Nc4c(Cl)ccc5c4OCO5)ncnc3c2)CC1` [S1006], for which the IC50 cell viability by setting is: under setting [1], 7.48 µM; under setting [2], 8.13 µM.
The matching figures for `Cn1cnc2c(F)c(Nc3ccc(Br)cc3Cl)c(C(=O)NOCCO)cc21` [S1008]: 1.66 µM and 1.44 µM.
As to `COC(=O)c1ccc2c(C(=Nc3ccc(N(C)C(=O)CN4CCN(C)CC4)cc3)c3ccccc3)c(O)[nH]c2c1` [S1010], the IC50 cell viability stood at 4.96 µM under setting [1] and 4.24 µM under setting [2].
On the same counts, the results for `CN(C)C/C=C/C(=O)Nc1cc2c(Nc3ccc(F)c(Cl)c3)ncnc2cc1O[C@H]1CCOC1` [S1011] are 66.1 µM and 87.7 µM.
On the same counts, the results for `COc1cc(Nc2c(C#N)cnc3cc(OCCCN4CCN(C)CC4)c(OC)cc23)c(Cl)cc1Cl` [S1014] are 6.31 µM and 6.07 µM.
The matching figures for `COc1cc2c(Oc3ccc4[nH]c(C)cc4c3F)ncnc2cc1OCCCN1CCCC1` [S1017]: 13.1 µM and 13.5 µM.
Regarding `CN1CCN(c2ccc3nc(-c4c(N)c5c(F)cccc5[nH]c4=O)[nH]c3c2)CC1` [S1018], the IC50 cell viability under setting [1] was 12.9 µM and the IC50 cell viability under setting [2] stood at 11.7 µM.
On the same counts, the results for `Cc1nc(Nc2ncc(C(=O)Nc3c(C)cccc3Cl)s2)cc(N2CCN(CCO)CC2)n1` [S1021] are 0.81 µM and 0.61 µM.
On to `C#Cc1cccc(Nc2ncnc3cc(OCCOC)c(OCCOC)cc23)c1` [S1023], for which the IC50 cell viability reads like this: under setting [1], 59.1 µM; under setting [2], 65.3 µM.
On the same counts, the results for `COc1cc2ncnc(Nc3ccc(F)c(Cl)c3)c2cc1OCCCN1CCOCC1` [S1025] are 2.22 µM and 1.71 µM.
In the case of `Cc1ccc(NC(=O)c2ccc(CN3CCN(C)CC3)cc2)cc1Nc1nccc(-c2cccnc2)n1` [S1026], the IC50 cell viability is 15 µM under setting [1] and 14.8 µM under setting [2].
On the same counts, the results for `CS(=O)(=O)CCNCc1ccc(-c2ccc3ncnc(Nc4ccc(OCc5cccc(F)c5)c(Cl)c4)c3c2)o1` [S1028] are 16.8 µM and 15 µM.
The matching figures for `Nc1cccc2c1CN(C1CCC(=O)NC1=O)C2=O` (stereo unspecified) [S1029]: 44 µM and 42.9 µM.
On the same counts, the results for `Cc1cn(-c2cc(NC(=O)c3ccc(C)c(Nc4nccc(-c5cccnc5)n4)c3)cc(C(F)(F)F)c2)cn1` [S1033] are 18.9 µM and 17.3 µM.
For `CO[C@H]1C[C@@H]2CC[C@@H](C)[C@@](O)(O2)C(=O)C(=O)N2CCCC[C@H]2C(=O)O[C@H]([C@H](C)C[C@@H]2CC[C@@H](O)[C@H](OC)C2)CC(=O)[C@H](C)/C=C(\C)[C@@H](O)[C@@H](OC)C(=O)[C@H](C)C[C@H](C)/C=C/C=C/C=C/1C` [S1039], the IC50 cell viability reads like this: under setting [1], 0.56 µM; under setting [2], 0.54 µM.
On the same counts, the results for `CNC(=O)c1cc(Oc2ccc(NC(=O)Nc3ccc(Cl)c(C(F)(F)F)c3)cc2)ccn1` [S1040] are 8.15 µM and 7.5 µM.
The matching figures for `CCN(CC)CCNC(=O)c1c(C)[nH]c(/C=C2\C(=O)Nc3ccc(F)cc32)c1C` [S1042]: 2.85 µM and 2.98 µM.
The matching figures for `CO[C@H]1C[C@@H]2CC[C@@H](C)[C@@](O)(O2)C(=O)C(=O)N2CCCC[C@H]2C(=O)O[C@H]([C@H](C)C[C@@H]2CC[C@@H](OC(=O)C(C)(CO)CO)[C@H](OC)C2)CC(=O)[C@H](C)/C=C(\C)[C@@H](O)[C@@H](OC)C(=O)[C@H](C)C[C@H](C)/C=C/C=C/C=C/1C` [S1044]: 27 µM and 24 µM.
As to `COc1cc2/c(=N/c3ccc(Br)cc3F)nc[nH]c2cc1OCC1CCN(C)CC1` [S1046], the IC50 cell viability by setting is: under setting [1], 5.87 µM; under setting [2], 5.04 µM.
For `O=C(CCCCCCC(=O)Nc1ccccc1)NO` [S1047], the IC50 cell viability is, setting by setting: under setting [1], 5.55 µM; under setting [2], 5.13 µM.
The matching figures for `Cc1cc(Nc2cc(N3CCN(C)CC3)nc(Sc3ccc(NC(=O)C4CC4)cc3)n2)n[nH]1` [S1048]: 22.9 µM and 22.7 µM.
The matching figures for `Nc1ccccc1NC(=O)c1ccc(CNC(=O)OCc2cccnc2)cc1` [S1053]: 11 µM and 11.2 µM.
The matching figures for `Cn1cc(C2=C(c3cn(C4CCN(Cc5ccccn5)CC4)c4ccccc34)C(=O)NC2=O)c2ccccc21` [S1055]: 13.8 µM and 12.5 µM.
Consider `O=C(c1cc(Cc2n[nH]c(=O)c3ccccc23)ccc1F)N1CCN(C(=O)C2CC2)CC1` [S1060], for which the IC50 cell viability under setting [1] was 53.8 µM and the IC50 cell viability under setting [2] is 31.9 µM.
The matching figures for `Cc1ccc(NC(=O)c2ccc(CN3CCN(C)CC3)cc2)cc1Nc1nc(-c2cccnc2)cs1` [S1064]: 68.8 µM and 66.2 µM.
Consider `CS(=O)(=O)N1CCN(Cc2cc3nc(-c4cccc5[nH]ncc45)nc(N4CCOCC4)c3s2)CC1` [S1065], for which the IC50 cell viability under setting [1] stood at 10.2 µM and the IC50 cell viability under setting [2] is 7.9 µM.
With `C[C@@H](Oc1cc(-c2cnn(C3CCNCC3)c2)cnc1N)c1c(Cl)ccc(F)c1Cl` [S1068], the IC50 cell viability is, setting by setting: under setting [1], 1.73 µM; under setting [2], 1.39 µM.
The matching figures for `CS(=O)(=O)c1ccc(C(=O)Nc2ccc(Cl)c(-c3ccccn3)c2)c(Cl)c1` [S1082]: 61.8 µM and 69 µM.
The matching figures for `O=C(/C=C/c1cccc(S(=O)(=O)Nc2ccccc2)c1)NO` [S1085]: 3.67 µM and 3.5 µM.
The matching figures for `NC(=O)c1ccc(I)c([N+](=O)[O-])c1` [S1087]: 69.1 µM and 51.3 µM.
As to `C[C@]1(O)C[C@@H](c2nc(-c3ccc4ccc(-c5ccccc5)nc4c3)c3c(N)nccn32)C1` [S1091], the IC50 cell viability worked out at 48.3 µM under setting [1] and 49.9 µM under setting [2].
The matching figures for `Cn1cc(CNCC2CCN(c3ncc(C(=O)NO)cn3)CC2)c2ccccc21` [S1096]: 0.41 µM and 0.39 µM.
On the same counts, the results for `CNCc1ccc(-c2[nH]c3cc(F)cc4c3c2CCNC4=O)cc1` [S1098] are 31.8 µM and 18.9 µM.
The matching figures for `Clc1ccc(Nc2nnc(Cc3ccncc3)c3ccccc23)cc1` [S1101]: 30.8 µM and 24.3 µM.
On to `CC(=O)c1c(C)c2cnc(Nc3ccc(N4CCNCC4)cn3)nc2n(C2CCCC2)c1=O` [S1116], for which the IC50 cell viability was 43.1 µM under setting [1] and 46.4 µM under setting [2].
The matching figures for `CO[C@H]1C[C@@H]2CC[C@@H](C)[C@@](O)(O2)C(=O)C(=O)N2CCCC[C@H]2C(=O)O[C@H]([C@H](C)C[C@@H]2CC[C@@H](OCCO)[C@H](OC)C2)CC(=O)[C@H](C)/C=C(\C)[C@@H](O)[C@@H](OC)C(=O)[C@H](C)C[C@H](C)/C=C/C=C/C=C/1C` [S1120]: 2.19 µM and 2.81 µM.
On the same counts, the results for `Nc1ccccc1NC(=O)c1ccc(CNc2nccc(-c3cccnc3)n2)cc1` [S1122] are 1.29 µM and 1.07 µM.
On the same counts, the results for `COCC[n+]1c2c(n(Cc3cnccn3)c1C)C(=O)c1ccccc1C2=O` [S1130] are 0.82 µM and 0.92 µM.
Regarding `COc1cc(Nc2ncc3c(n2)-c2ccc(Cl)cc2C(c2c(F)cccc2OC)=NC3)ccc1C(=O)O` [S1133], the IC50 cell viability under setting [1] stood at 8.24 µM and the IC50 cell viability under setting [2] was 10.5 µM.
The matching figures for `CC(C)OC(=O)C(C(=O)OC(C)C)=C1SC=CS1` [S1137]: 38.1 µM and 36.1 µM.
The matching figures for `C=CCNC1=C2C[C@@H](C)C[C@H](OC)[C@H](O)[C@@H](C)/C=C(\C)[C@H](OC(N)=O)[C@@H](OC)/C=C\C=C(/C)C(=O)NC(=CC1=O)C2=O` [S1141]: 1.07 µM and 0.75 µM.
On the same counts, the results for `CCN(CCO)CCCOc1ccc2c(Nc3cc(CC(=O)Nc4cccc(F)c4)[nH]n3)ncnc2c1` [S1147] are 16.7 µM and 15.1 µM.
Consider `CC(=O)O[C@@]12CO[C@@H]1C[C@H](O)[C@@]1(C)C(=O)[C@H](O)C3=C(C)[C@@H](OC(=O)[C@H](O)[C@@H](NC(=O)OC(C)(C)C)c4ccccc4)C[C@@](O)([C@@H](OC(=O)c4ccccc4)[C@H]21)C3(C)C` [S1148], for which the IC50 cell viability by setting is: under setting [1], 0.39 µM; under setting [2], 0.34 µM.
On the same counts, the results for `CC(=O)O[C@H]1C(=O)[C@@]2(C)[C@H]([C@H](OC(=O)c3ccccc3)[C@]3(O)C[C@H](OC(=O)[C@H](O)[C@@H](NC(=O)c4ccccc4)c4ccccc4)C(C)=C1C3(C)C)[C@]1(OC(C)=O)CO[C@@H]1C[C@@H]2O` [S1150] are 19 µM and 17.6 µM.

The values are drawn from the supplement of paper PMC12325586.
